Data taken from paper PMC11233931, “Remodeling tumor‐associated macrophage for anti‐cancer effects by rational design of irreversible inhibition of mitogen‐activated protein kinase‐activated protein kinase 2” (MedComm, 2024).

Key:
[1] = tested on: CD206 and Arg-1 expression in BMDM; experiment: Flow cytometry of CD206 and Arg-1 in IL-4/IL-13 stimulated BMDM; type: cell-based, mouse; details: IL-4/IL-13, 48 h
Description: A previous study has reported that MK2 fostered M2‐like polarization of TAMs, driving a protumor and proangiogenic phenotype which in turn accelerates tumor progression.[21] We thus assessed the influence of compound 11 on macrophage polarization and function. Our experiments used human THP‐1 monocyte induced macrophages, mouse RAW264.7 macrophages, and mouse bone marrow‐derived macrophages (BMDM). These cells were induced into M2‐like macrophages using the classic IL‐4 and IL‐13 stimuli.
FIGURE 5 Inhibition of pro‐tumorigenic M2‐like polarization in macrophages by compound 11. (A–C) RT‐PCR analysis highlights the impact of compound 11 on MRC1 and ARG‐1 mRNA expression in various macrophage cells treated with IL‐4/IL‐13 alone or combined with compound 11 for 12 h or 24 h. (D) CD206 and Arg‐1 expression in bone marrow‐derived macrophages (BMDM) cells via flow cytometry post 48 h treatment of compound 11 and IL‐4/IL‐13. (E) The treatment effects of compound 11 in THP‐1 cells using western blot analysis. Cells were pretreated with compound 11 for 1 h and followed by IL‐4/IL‐13 treatment (30 min). (F) The influence of MK2 siRNA on MRC1 and ARG‐1 mRNA expression in THP‐1 cells by RT‐PCR analysis post‐IL‐4/IL‐13 stimulation (12 h). […] Data are shown as the mean ± SD. ^* p < 0.05; ^*** p < 0.001 versus the vehicle group, determined by unpaired t test. […]

[2] = Cell viability assay (CCK-8), THP-1; type: cell-based; details: THP-1 cells (monocyte), THP-1, human monocyte, read-out: IC50 (μM) mean ± SD, cytotoxicity
Experimental: In cellular experiments, cells are seeded into either 6-well or 96-well plates and incubated overnight, proceeding with treatments as described in the figure legends or methods section. The cell inoculation numbers are outlined as follows: For assays measuring cell viability, between 3,000 to 5,000 cells are seeded per well in 96-well plates. For other cellular assays, the seeding density ranges from 5×10^5 to 1×10^6 cells per well in 6-well plates.
Cells was plated into 96-well plates and incubated overnight prior to introduction of varying concentrations of compounds or control solvent. Following a 72-hour exposure period, cell viability was determined using a Cell Counting Kit-8 assay (Life-iLab, China). Dose-response curves were fitted using a four-parameter method facilitated by SoftMax Pro, which was subsequently used for the computation of IC50 values.

[3] = biological target: T1, MK2 (Homo sapiens, UniProt P49137); experiment: MK2 kinase inhibition assay (ADP-Glo); type: biochemical; details: mean ± SD of two independent tests
T1 sequence (P49137 whole entry): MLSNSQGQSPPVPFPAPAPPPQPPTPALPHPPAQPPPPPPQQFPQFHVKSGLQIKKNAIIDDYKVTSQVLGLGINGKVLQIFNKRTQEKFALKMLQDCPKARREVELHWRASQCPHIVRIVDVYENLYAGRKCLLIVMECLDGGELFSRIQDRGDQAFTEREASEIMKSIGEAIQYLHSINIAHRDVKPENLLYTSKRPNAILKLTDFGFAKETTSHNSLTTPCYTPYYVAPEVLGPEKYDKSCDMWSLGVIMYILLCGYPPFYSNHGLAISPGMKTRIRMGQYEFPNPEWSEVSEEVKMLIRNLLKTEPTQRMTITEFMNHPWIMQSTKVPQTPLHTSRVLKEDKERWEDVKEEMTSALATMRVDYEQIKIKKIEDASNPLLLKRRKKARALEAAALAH
Experimental: To assess the impact of various compounds on MK2 kinase activity, we utilized the ADP‐Glo Assay Kit (Promega) following the manufacturer's instructions. Luminescence measurements were taken using a SpectraMax Paradigm reader. The inhibition percentage was calculated using the following formula: ((specific signalDMSO control − specific signal inhibitor)/(specific signalDMSO control)) × 100%. The IC50 values were determined employing dose–response curve fitting via Prism (Graph Pad).

[4] = biological target: T1, MK2; experiment: Kinase kinetic analysis of irreversible inhibition (Mobility Shift Assay, preincubation then 100-fold dilution); type: biochemical; details: preincubation at 100 times the IC50, monitored continuously
Description: To assess its role as an irreversible MK2 kinase inhibitor, we conducted a kinetic study on compound 11. The well‐known reversible ATP‐competitive MK2 inhibitor, PF‐3644022, served as a negative control. […] The kinase‐inhibitor mixture was subsequently diluted by a factor of 100 with a reaction buffer that included both substrate peptide and ATP. Under these circumstances, the activity of MK2 kinase was continuously monitored by assessing the phosphorylated substrate percentage. […] The enzyme activity curve almost overlapped with the curve of background group, which included only the substrate peptide without inhibitors and MK2 kinase.
In the kinase kinetic analysis to elucidate the irreversible inhibition of MK2 by compound 11, a Mobility Shift Assay was conducted. […] The EZ Reader (Caliper Life Sciences, MA) was then used to assess the kinase activity of the mixture, which was monitored continuously for 1 hour.

C=CC(=O)Nc1cc(-c2cc(-c3cc4c([nH]3)CCNC4=O)ccn2)ccc1OC(F)(F)F [compound 11]
effect on expression levels of surface CD206 and Arg-1 [1]: suppress
IC50 at 72 h [2]: 34.7 ± 0.4 µM
IC50 [3]: 2.3 nM
MK2 kinase activity after 30 min preincubation with inhibitor and 100-fold dilution [4]: sustained and potent inhibition of kinase activity
